Laboratory results taken from patent US12667584B2, “Adenosine analog and its use in regulating the circadian clock” (NATIONAL INSTITUTE OF BIOLOGICAL SCIENCES, BEIJING, priority 2017, dated 2026).

Assays:
[1] = target: T1, Ruvbl2, Bmal1, Cry1 and CDK9 interaction (Homo sapiens, UniProt Q9Y230); assay: Co-immunoprecipitation in transfected HEK293T cells; assay type: cell-based; settings: 100 μM
T1 construct: expressed in transfected cells; host or cells: HEK293T
Experimental: (§1) Biotinylated Compounds Pull-down, SPR analysis and Immunoprecipitation: The interaction between biotinylated compounds and their target proteins were proceeded as follow. Every 10^8 unsynchronized U2OS cells were collected, homogenized into 2 ml lysis buffer (25 mM MOPS pH7.2, 15 mM EGTA, 15 mM MgCl2, 1 mM DTT, 60 mM β-glycerophosphate, 1 mM Na3VO4, 1 mM NaF, 1 mM phenyl phosphate, Complete Protease Inhibitor Cocktail), and sonicated 6 times for 30 s at 4° C. with a Diagenode bioruptor. After sonication, NP-40 (final 0.5%) was added, incubated 15 min on ice, centrifuged at full speed for 20 min at 4° C. The resultant supernatant was firstly incubated with Pentostatin (final concentration at 5 μg/ml) for 2 h at 4° C. with rotation, and then split into 4 groups. 200 pmol cordycepin, 200 pmol DRB, and DMSO (2 groups, final 0.1%) was added respectively and further incubated for 1 h. […] The eluted protein was analyzed with western blot. The binding affinity of cordycepin against the RUVBL2 protein was measured via SPR technology using a Biacore T200 instrument (GE Healthcare) at room temperature. […] The binding kinetics and binding affinity of cordycepin against the RUVBL2 protein were determined with BIA evaluation software (GE healthcare). […] Immunoprecipitated protein complex was then washed 3 times with IP lysis buffer, boiled and analyzed with western blot. […]

[2] = tested on: Per2::LUC adult murine fibroblasts; assay: Time-of-admission phase shift and amplitude in Per2::LUC adult murine fibroblasts; assay type: cell-based, mouse
Experimental: In above investigation, we found cordycepin (cordycepin-like nucleosides) shift the circadian phase, therefore it could be seemed as a circadian time giver (zeitgeiber). One prominent character of zeitgeiber is phase dependent function. Therefore, we further tested whether cordycepin also has the character. We use both transcriptional reporter (Per2:luc U2OS cells) translational reporter (Per2::LUC adult murine fibroblasts) model to investigate this character. The two reporter were seeded in 3.5 cm dish, transferred into lumicycle, and treated with cordycepin (100 μM in Per2:luc U2OS cells and 25 μM in Per2::LUC adult murine fibroblasts) every 2 hours from CT 0 to CT 24. 3 days after treatment and data analysis, we found in both reporter cells, cordycepin show highly “time-of-admission” dependent phase-change, 12 h phase shift when applied at CT10 and nearly 0 h phase shift when applied at CT 20 (F). […] To test this, we treated nearly damped Per2::LUC adult murine fibroblasts at CT 20 with DMSO or 25 μM cordycepin.

PER2 locus = assay: ChIP-qPCR analysis for the PER2 locus; assay type: cell-based
Experimental: Human and mouse circadian oscillators are driven by interlocked transcriptional and translational feedback loop. Bmal1 and Clock are transcriptional factors and function as positive arm to active negative arm genes transcription, including Per and Cry. Per and Cry are transcriptional repressor and feedback repress Bmal1/Clock's transcription activity thereby inhibit its own transcription. […] We also confirmed this by ChIP-qPCR experiments. Cordycepin treatment 30 min immediately release Cry1/2 and Ruvbl2 binding at Per2 gene promoter.

[3] = Sleep phenotype by locomoter activity and electrophysiological recording; settings: in vivo
From the text: This is considered as a positive side-effect to adapt to jet-lag, which causes more problems on the sleep than arousal side. […] This work provide immediate and important practical applications, including use the disclosed compounds to assist humans who suffer jet-lag or shift-work can use this drug to adjust the clock-phase, and simultaneously tune the sleep-wake pattern, particularly coupled with caffeine ingestion.

Ruvbl2 = Ruvbl2 (Homo sapiens, UniProt Q9Y230); assay: SPR binding to RUVBL2 protein (Biacore T200); settings: purified RUVBL2
Experimental: as §1

T1 sequence (Q9Y230 whole entry): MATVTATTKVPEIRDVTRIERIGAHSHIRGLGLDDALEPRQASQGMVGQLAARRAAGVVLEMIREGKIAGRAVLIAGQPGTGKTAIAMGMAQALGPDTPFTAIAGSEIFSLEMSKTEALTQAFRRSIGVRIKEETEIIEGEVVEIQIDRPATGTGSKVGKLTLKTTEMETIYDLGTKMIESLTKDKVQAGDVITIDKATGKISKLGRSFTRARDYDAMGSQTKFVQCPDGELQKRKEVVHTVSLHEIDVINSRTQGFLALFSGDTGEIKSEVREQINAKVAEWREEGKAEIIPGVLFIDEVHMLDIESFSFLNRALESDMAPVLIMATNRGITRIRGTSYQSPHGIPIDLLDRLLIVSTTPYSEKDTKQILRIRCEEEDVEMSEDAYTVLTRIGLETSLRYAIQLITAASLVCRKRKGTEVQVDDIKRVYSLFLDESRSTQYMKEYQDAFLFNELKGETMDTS
Chain of Ruvbl2 (Q9Y230 whole entry): as above

Compound: Nc1ncnc2c1ncn2[C@@H]1O[C@H](CO)C[C@H]1O [Cordycepin, 3′-deoxy-adenosine]
- interaction between Ruvbl2 and Bmal1, or Cry1 with Bmal1 [1]: can be disassociated
- interaction between Ruvbl2 with Cry1 or CDK9 [1]: is not disassociated
- phase shift ([2]; 25 μM applied at CT10): 12 h
- phase shift ([2]; 25 μM applied at CT 20): ~0 h
- amplitude ([2]; 25 μM at CT 20, nearly damped fibroblasts): increase the amplitude
- binding of BMAL1 at PER2 locus (PER2 locus): remained unchanged
- binding of CRY2/RUVBL2 at PER2 locus (PER2 locus): released
- sleep phenotype [3]: leads to a sleep phenotype
- Kd (Ruvbl2): ~500 nM
